Data reported in the supplement of paper PMC8149375.

Tests used:
Details in all cases: treatment: drug + dasatinib (fixed dose, not stated); 5 days
769-P [1] = test: GI50 of drug in presence of dasatinib; higher = less potent
Method: (§1)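 Primary HTS combination arm: 8 RCC cell lines treated with 8 doses (up to 10 uM) of each library drug plus a fixed dose of dasatinib (dose not stated) for 5 days; viability read by CellTiter-Glo and normalised to DMSO. GI50 was fitted with XLfit, AUC is the area under the dose-response curve, and minimum viability is the lowest fraction of DMSO viability across doses.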

786-O [2] = test: as above
Method: as §1

A498 [3] = test: as above
Method: as §1

ACHN [4] = test: as above
Method: as §1

CAKI-1 [5] = test: as above
Method: as §1

SN12C [6] = test: as above
Method: as §1

TK-10 [7] = test: as above
Method: as §1

UO-31 [8] = test: as above
Method: as §1

769-P [9] = test: minimum viability across doses, drug + dasatinib, relative to DMSO (fraction); higher = less growth inhibition
Method: as §1

786-O [10] = test: as above
Method: as §1

A498 [11] = test: as above
Method: as §1

ACHN [12] = test: as above
Method: as §1

CAKI-1 [13] = test: as above
Method: as §1

SN12C [14] = test: as above
Method: as §1

TK-10 [15] = test: as above
Method: as §1

UO-31 [16] = test: as above
Method: as §1

769-P [17] = test: AUC of dose-response viability curve, drug + dasatinib, normalised to DMSO (arbitrary (AUC of normalised viability)); higher = less growth inhibition
Method: as §1

786-O [18] = test: as above
Method: as §1

A498 [19] = test: as above
Method: as §1

ACHN [20] = test: as above
Method: as §1

CAKI-1 [21] = test: as above
Method: as §1

SN12C [22] = test: as above
Method: as §1

TK-10 [23] = test: as above
Method: as §1

UO-31 [24] = test: as above
Method: as §1

SMILES | GI50 of drug (769-P [1]) [nM] | GI50 of drug (786-O [2]) [nM] | GI50 of drug (A498 [3]) [nM] | GI50 of drug (ACHN [4]) [nM] | GI50 of drug (CAKI-1 [5]) [nM] | GI50 of drug (SN12C [6]) [nM] | GI50 of drug (TK-10 [7]) [nM] | GI50 of drug (UO-31 [8]) [nM] | minimum viability across doses (769-P [9]) | minimum viability across doses (786-O [10]) | minimum viability across doses (A498 [11]) | minimum viability across doses (ACHN [12]) | minimum viability across doses (CAKI-1 [13]) | minimum viability across doses (SN12C [14]) | minimum viability across doses (TK-10 [15]) | minimum viability across doses (UO-31 [16]) | AUC of dose-response viability curve (769-P [17]) | AUC of dose-response viability curve (786-O [18]) | AUC of dose-response viability curve (A498 [19]) | AUC of dose-response viability curve (ACHN [20]) | AUC of dose-response viability curve (CAKI-1 [21]) | AUC of dose-response viability curve (SN12C [22]) | AUC of dose-response viability curve (TK-10 [23]) | AUC of dose-response viability curve (UO-31 [24])
CNC(=O)c1ccc(-c2cnc3ncc(Cc4ccc5ncccc5c4)n3n2)cc1F + Cc1nc(Nc2ncc(C(=O)Nc3c(C)cccc3Cl)s2)cc(N2CCN(CCO)CC2)n1 [dasatinib] | 7570 | > 10000 | > 10000 | 9070 | > 10000 | > 10000 | > 10000 | > 10000 | 0.457 | 0.576 | 0.918 | 0.497 | 0.571 | 0.659 | 0.656 | 0.991 | 2.42 | 2.19 | 3.63 | 2.05 | 2.26 | 2.42 | 2.44 | 4.11
COc1cc2c(Oc3ccc(NC(=O)C4(C(=O)Nc5ccc(F)cc5)CC4)cc3F)ccnc2cc1OCCCN1CCOCC1 + Cc1nc(Nc2ncc(C(=O)Nc3c(C)cccc3Cl)s2)cc(N2CCN(CCO)CC2)n1 [dasatinib] | 458 | 496 | 1430 | 112 | 135 | 226 | 558 | 393 | 0.00976 | 0.00858 | 0.0345 | 0.00242 | 0.00437 | 0.0105 | 0.00508 | 0.011 | 1.78 | 1.65 | 2.47 | 1.36 | 1.48 | 1.56 | 1.94 | 1.95
Nc1nc(Nc2ccc(S(N)(=O)=O)cc2)nn1C(=O)c1c(F)cccc1F + Cc1nc(Nc2ncc(C(=O)Nc3c(C)cccc3Cl)s2)cc(N2CCN(CCO)CC2)n1 [dasatinib] | 3160 | 343 | 4680 | 334 | 1250 | 3690 | > 10000 | 4120 | 0.0371 | 0.00366 | 0.269 | 0.00508 | 0.0394 | 0.142 | 0.623 | 0.00972 | 2.24 | 1.7 | 2.82 | 1.56 | 1.99 | 2.48 | 2.57 | 3.26
O=C1NC(=O)/C(=C/c2ccc3nccc(-c4ccncc4)c3c2)S1 + Cc1nc(Nc2ncc(C(=O)Nc3c(C)cccc3Cl)s2)cc(N2CCN(CCO)CC2)n1 [dasatinib] | 294 | 136 | 383 | 101 | 75 | 304 | 930 | 500 | 0.261 | 0.00524 | 0.138 | 0.108 | 0.0502 | 0.243 | 0.318 | 0.0612 | 1.8 | 1.53 | 2.01 | 1.45 | 1.29 | 1.76 | 2.17 | 2.17
COc1ncc(-c2ccc3nccc(-c4ccnnc4)c3c2)cc1NS(=O)(=O)c1ccc(F)cc1F + Cc1nc(Nc2ncc(C(=O)Nc3c(C)cccc3Cl)s2)cc(N2CCN(CCO)CC2)n1 [dasatinib] | 18.4 | 4.97 | 168 | 8.21 | 7.86 | 19 | 16.5 | 28.1 | 0.0228 | 0.00295 | 0.158 | 0.0717 | 0.00939 | 0.104 | 0.0271 | 0.00632 | 0.957 | 0.564 | 1.82 | 0.822 | 0.66 | 1.1 | 0.955 | 0.993
CCn1c(-c2nonc2N)nc2c(C#CC(C)(C)O)ncc(OC[C@H]3CCCNC3)c21 + Cc1nc(Nc2ncc(C(=O)Nc3c(C)cccc3Cl)s2)cc(N2CCN(CCO)CC2)n1 [dasatinib] | > 10000 | 213 | > 10000 | 456 | 2670 | > 10000 | 1930 | > 10000 | 0.627 | 0.189 | 0.802 | 0.274 | 0.305 | 0.66 | 0.421 | 0.642 | 2.43 | 1.74 | 3.07 | 1.8 | 2.29 | 2.45 | 2.22 | 2.8
